Measurements as given in the kinase profiling compilation of Christmann-Franck et al. (2016).

How the values were obtained:
Assay in all cases: KINOMEscan competition binding
Settings in all cases: compound 10.0 µM
[1] = biological target: BTK (human) (UniProt Q06187)
[2] = biological target: CASK (human) (UniProt O14936)
[3] = biological target: CDK2 (human) (UniProt P24941)
[4] = biological target: CDKL5 (human) (UniProt O76039)
[5] = test system: EGFR (human), P00533 [L861Q]
[6] = test system: EGFR (human), P00533 [P753S; 747-752 del]
[7] = biological target: EIF2AK1 (human) (UniProt Q9BQI3)
[8] = biological target: EPHB6 (human) (UniProt O15197)
[9] = biological target: GRK1 (human) (UniProt Q15835)
[10] = biological target: GRK4 (human) (UniProt P32298)
[11] = biological target: HIPK2 (human) (UniProt Q9H2X6)
Chain of HIPK2 (human) (Q9H2X6 whole entry, looked up): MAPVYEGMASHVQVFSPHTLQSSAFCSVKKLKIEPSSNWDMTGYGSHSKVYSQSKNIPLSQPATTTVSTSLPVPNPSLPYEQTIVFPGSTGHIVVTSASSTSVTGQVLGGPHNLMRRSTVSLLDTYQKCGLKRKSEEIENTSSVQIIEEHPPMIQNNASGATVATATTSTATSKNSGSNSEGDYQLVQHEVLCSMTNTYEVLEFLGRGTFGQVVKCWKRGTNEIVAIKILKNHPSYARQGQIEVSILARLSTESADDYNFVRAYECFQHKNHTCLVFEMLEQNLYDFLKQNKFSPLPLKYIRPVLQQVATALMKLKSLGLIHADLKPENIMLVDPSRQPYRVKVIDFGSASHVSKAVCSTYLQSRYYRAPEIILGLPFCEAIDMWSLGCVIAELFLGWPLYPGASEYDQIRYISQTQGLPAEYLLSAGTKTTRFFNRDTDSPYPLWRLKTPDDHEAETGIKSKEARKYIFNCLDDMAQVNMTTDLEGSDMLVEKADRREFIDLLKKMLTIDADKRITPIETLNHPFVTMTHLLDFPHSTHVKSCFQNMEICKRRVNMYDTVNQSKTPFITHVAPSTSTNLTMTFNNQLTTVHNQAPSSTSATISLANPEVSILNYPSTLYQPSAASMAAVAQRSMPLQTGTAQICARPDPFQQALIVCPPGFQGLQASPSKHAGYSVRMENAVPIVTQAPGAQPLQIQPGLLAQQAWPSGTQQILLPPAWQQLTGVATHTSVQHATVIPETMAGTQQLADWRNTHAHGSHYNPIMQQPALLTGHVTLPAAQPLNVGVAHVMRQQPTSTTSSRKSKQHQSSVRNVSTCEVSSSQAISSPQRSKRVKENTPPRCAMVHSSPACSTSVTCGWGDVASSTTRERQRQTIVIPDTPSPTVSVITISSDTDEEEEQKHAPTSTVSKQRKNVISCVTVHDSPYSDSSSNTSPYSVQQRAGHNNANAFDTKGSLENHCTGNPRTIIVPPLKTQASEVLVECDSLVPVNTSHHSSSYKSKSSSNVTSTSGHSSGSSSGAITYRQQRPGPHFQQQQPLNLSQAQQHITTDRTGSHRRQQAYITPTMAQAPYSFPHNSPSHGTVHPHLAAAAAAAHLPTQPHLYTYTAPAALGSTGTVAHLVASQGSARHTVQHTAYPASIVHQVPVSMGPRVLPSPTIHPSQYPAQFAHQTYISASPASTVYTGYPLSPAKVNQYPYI

[12] = biological target: HIPK3 (human) (UniProt Q9H422)
[13] = biological target: HUNK (human) (UniProt P57058)
[14] = biological target: IRAK1 (human) (UniProt P51617)
Chain of IRAK1 (human) (P51617 whole entry, looked up): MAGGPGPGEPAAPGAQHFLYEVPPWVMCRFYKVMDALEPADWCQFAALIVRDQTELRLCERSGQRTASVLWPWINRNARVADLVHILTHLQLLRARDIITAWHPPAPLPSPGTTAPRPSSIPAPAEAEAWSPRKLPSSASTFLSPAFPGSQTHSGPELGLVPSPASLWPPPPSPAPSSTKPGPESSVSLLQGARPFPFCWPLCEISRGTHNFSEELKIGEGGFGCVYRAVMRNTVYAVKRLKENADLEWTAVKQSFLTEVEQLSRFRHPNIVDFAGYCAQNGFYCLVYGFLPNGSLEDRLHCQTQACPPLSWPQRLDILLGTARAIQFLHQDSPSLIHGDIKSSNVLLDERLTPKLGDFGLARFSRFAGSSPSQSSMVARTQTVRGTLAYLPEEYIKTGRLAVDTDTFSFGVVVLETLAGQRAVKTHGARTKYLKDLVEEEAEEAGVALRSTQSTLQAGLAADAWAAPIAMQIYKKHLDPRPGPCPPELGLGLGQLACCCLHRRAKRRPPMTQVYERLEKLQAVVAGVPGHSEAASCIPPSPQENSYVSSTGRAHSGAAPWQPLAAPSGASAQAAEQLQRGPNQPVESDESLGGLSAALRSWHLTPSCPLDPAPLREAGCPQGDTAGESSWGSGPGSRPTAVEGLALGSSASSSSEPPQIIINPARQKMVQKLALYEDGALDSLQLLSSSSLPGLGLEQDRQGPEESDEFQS

[15] = biological target: IRAK4 (human) (UniProt Q9NWZ3)
[16] = test system: KIT (human), P10721 [V559D/T670I]
[17] = biological target: LRRK2 (human) (UniProt Q5S007)
[18] = biological target: MAP2K5 (human) (UniProt Q13163)
[19] = biological target: MAP3K1 (human) (UniProt Q13233)
[20] = biological target: MAP3K15 (human) (UniProt Q6ZN16)
[21] = biological target: MAP3K2 (human) (UniProt Q9Y2U5)
[22] = biological target: MATK (human) (UniProt P42679)
[23] = biological target: MET (human) (UniProt P08581)
[24] = biological target: MTOR (human) (UniProt P42345)
[25] = biological target: MYLK3 (human) (UniProt Q32MK0)
[26] = biological target: NEK11 (human) (UniProt Q8NG66)
Chain of NEK11 (human) (Q8NG66 whole entry, looked up): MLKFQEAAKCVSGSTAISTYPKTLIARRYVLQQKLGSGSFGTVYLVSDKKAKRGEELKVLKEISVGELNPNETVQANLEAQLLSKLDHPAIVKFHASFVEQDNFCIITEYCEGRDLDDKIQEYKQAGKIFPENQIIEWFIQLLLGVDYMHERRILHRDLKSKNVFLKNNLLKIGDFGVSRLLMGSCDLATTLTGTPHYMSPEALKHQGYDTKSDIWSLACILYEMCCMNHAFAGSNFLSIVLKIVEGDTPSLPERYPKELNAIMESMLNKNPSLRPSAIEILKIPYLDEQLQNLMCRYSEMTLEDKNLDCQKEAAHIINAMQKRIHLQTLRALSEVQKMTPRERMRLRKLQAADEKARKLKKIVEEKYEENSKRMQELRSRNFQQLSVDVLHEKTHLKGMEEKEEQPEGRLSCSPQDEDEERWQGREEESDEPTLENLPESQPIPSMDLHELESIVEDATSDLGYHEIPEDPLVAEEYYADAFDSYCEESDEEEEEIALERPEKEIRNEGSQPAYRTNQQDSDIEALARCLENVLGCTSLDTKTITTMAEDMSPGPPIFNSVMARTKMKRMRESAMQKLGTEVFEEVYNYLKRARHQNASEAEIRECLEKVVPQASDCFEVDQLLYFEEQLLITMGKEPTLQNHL

[27] = biological target: NEK4 (human) (UniProt P51957)
[28] = test system: PIK3CA (human), P42336 [E545A]
Chain of PIK3CA (human), P42336 [E545A] (P42336 whole entry E545A, looked up): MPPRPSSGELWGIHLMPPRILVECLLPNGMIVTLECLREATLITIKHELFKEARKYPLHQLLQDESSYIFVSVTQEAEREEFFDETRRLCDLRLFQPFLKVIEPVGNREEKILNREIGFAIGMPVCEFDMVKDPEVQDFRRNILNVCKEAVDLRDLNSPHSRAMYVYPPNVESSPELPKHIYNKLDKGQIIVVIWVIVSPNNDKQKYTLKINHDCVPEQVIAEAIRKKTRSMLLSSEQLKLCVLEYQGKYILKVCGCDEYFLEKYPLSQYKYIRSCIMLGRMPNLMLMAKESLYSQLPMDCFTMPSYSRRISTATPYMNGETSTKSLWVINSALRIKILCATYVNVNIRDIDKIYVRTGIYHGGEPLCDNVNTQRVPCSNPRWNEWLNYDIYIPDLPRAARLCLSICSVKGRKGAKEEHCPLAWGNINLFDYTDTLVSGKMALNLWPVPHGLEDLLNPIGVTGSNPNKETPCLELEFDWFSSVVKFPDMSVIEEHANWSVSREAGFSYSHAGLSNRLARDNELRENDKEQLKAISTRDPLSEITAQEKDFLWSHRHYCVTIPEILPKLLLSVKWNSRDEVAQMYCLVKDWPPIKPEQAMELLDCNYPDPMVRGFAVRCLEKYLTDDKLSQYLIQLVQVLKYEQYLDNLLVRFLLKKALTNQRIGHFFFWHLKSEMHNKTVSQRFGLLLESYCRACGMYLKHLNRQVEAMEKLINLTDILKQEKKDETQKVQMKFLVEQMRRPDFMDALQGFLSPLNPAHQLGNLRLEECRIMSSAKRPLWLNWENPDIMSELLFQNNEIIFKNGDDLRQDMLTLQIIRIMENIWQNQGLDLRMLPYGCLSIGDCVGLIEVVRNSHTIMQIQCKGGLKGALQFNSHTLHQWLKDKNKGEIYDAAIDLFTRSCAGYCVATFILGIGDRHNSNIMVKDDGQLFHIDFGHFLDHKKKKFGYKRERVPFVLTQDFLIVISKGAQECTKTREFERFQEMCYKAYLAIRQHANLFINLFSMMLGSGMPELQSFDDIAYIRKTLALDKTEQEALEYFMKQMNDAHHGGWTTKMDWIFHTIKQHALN

[29] = test system: PIK3CA (human), P42336 [I800L]
Chain of PIK3CA (human), P42336 [I800L] (P42336 whole entry I800L, looked up): as the sequence (P42336 whole entry E545A, looked up) above, with A545E, I800L counted along it

[30] = biological target: PKN3 (M.tuberculosis) (UniProt Q6P5Z2)
Chain of PKN3 (M.tuberculosis) (Q6P5Z2 whole entry, looked up): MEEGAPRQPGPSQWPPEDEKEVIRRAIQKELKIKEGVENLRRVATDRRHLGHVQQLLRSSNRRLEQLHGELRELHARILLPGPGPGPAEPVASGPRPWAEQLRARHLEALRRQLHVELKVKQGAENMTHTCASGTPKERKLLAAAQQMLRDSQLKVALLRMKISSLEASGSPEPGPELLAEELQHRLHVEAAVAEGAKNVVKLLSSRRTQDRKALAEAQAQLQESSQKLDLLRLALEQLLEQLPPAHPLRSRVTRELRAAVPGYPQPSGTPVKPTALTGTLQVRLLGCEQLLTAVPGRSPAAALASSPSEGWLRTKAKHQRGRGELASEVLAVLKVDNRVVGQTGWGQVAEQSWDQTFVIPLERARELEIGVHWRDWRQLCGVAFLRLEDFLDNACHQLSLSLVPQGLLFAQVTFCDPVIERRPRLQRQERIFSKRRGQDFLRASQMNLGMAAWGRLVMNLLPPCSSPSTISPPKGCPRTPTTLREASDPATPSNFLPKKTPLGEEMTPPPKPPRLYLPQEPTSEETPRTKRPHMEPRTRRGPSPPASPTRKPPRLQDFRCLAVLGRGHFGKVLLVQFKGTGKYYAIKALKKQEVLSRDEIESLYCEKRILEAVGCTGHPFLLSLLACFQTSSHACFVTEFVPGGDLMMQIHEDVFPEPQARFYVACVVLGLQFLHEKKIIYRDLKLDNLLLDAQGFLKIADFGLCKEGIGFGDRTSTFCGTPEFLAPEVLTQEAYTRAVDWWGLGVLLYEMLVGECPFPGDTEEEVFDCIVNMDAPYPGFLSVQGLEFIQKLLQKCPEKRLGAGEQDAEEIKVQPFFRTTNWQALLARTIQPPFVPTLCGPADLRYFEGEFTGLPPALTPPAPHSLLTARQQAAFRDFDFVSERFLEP

[31] = biological target: PLK2 (human) (UniProt Q9NYY3)
[32] = biological target: PRPF4B (human) (UniProt Q13523)
[33] = biological target: ROCK1 (human) (UniProt Q13464)
[34] = biological target: SIK3 (human) (UniProt Q9Y2K2)
[35] = biological target: SNRK (human) (UniProt Q9NRH2)
[36] = biological target: STK38 (human) (UniProt Q15208)
Chain of STK38 (human) (Q15208 whole entry, looked up): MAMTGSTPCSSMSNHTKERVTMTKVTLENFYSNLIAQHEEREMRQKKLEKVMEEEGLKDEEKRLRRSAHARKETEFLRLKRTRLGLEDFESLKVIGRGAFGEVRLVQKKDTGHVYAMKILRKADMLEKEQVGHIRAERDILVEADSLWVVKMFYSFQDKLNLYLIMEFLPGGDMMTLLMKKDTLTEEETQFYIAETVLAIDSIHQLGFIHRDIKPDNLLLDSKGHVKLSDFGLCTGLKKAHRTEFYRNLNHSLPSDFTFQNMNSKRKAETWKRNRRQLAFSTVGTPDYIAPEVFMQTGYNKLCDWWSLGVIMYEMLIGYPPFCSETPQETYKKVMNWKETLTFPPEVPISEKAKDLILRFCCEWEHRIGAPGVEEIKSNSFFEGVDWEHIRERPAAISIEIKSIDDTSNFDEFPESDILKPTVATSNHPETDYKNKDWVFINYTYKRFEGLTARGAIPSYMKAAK

[37] = biological target: TAOK2 (human) (UniProt Q9UL54)
[38] = biological target: TBK1 (human) (UniProt Q9UHD2)
[39] = biological target: TRPM6 (human) (UniProt Q9BX84)
[40] = biological target: VRK2 (human) (UniProt Q86Y07)

| Compound | kinase still bound, per cent of control [1] [%] | kinase still bound, per cent of control [2] [%] | kinase still bound, per cent of control [3] [%] | kinase still bound, per cent of control [4] [%] | kinase still bound, per cent of control [5] [%] | kinase still bound, per cent of control [6] [%] | kinase still bound, per cent of control [7] [%] | kinase still bound, per cent of control [8] [%] | kinase still bound, per cent of control [9] [%] | kinase still bound, per cent of control [10] [%] | kinase still bound, per cent of control [11] [%] | kinase still bound, per cent of control [12] [%] | kinase still bound, per cent of control [13] [%] | kinase still bound, per cent of control [14] [%] | kinase still bound, per cent of control [15] [%] | kinase still bound, per cent of control [16] [%] | kinase still bound, per cent of control [17] [%] | kinase still bound, per cent of control [18] [%] | kinase still bound, per cent of control [19] [%] | kinase still bound, per cent of control [20] [%] | other results |
| --- | --- | --- | --- | --- | --- | --- | --- | --- | --- | --- | --- | --- | --- | --- | --- | --- | --- | --- | --- | --- | --- |
| COc1cc(N2CCN(C)CC2)ccc1Nc1nc(N)c(C(=O)c2c(Cl)cccc2Cl)s1 | 100 | 35 | 79 | 100 | 100 | 89 | 100 | 63 | 100 | 85 | 66 | 99 | 100 | 92 | 96 | 100 | 81 | 100 | 100 | 51 | kinase still bound, per cent of control [21]: 79%; kinase still bound, per cent of control [22]: 61%; kinase still bound, per cent of control [23]: 100%; kinase still bound, per cent of control [24]: 100%; kinase still bound, per cent of control [25]: 100%; kinase still bound, per cent of control [26]: 65%; kinase still bound, per cent of control [27]: 96%; kinase still bound, per cent of control [28]: 100%; kinase still bound, per cent of control [29]: 96%; kinase still bound, per cent of control [30]: 80%; kinase still bound, per cent of control [31]: 91%; kinase still bound, per cent of control [32]: 100%; kinase still bound, per cent of control [33]: 79%; kinase still bound, per cent of control [34]: 76%; kinase still bound, per cent of control [35]: 82%; kinase still bound, per cent of control [36]: 100%; kinase still bound, per cent of control [37]: 8.2%; kinase still bound, per cent of control [38]: 100%; kinase still bound, per cent of control [39]: 5.2%; kinase still bound, per cent of control [40]: 100% |
| C=CC(=O)Nc1cccc(Nc2nc(N[C@H]3CC[C@H](N(C)C)CC3)nc3c2ncn3C(C)C)c1 | 35 | 92 | 100 | 100 | 100 | 90 | 100 | 74 | 47 | 43 | 17 | 26 | 85 | 1.8 | 2.5 | 86 | 61 | 59 | 100 | 66 | kinase still bound, per cent of control [21]: 0.2%; kinase still bound, per cent of control [22]: 40%; kinase still bound, per cent of control [23]: 100%; kinase still bound, per cent of control [24]: 100%; kinase still bound, per cent of control [25]: 100%; kinase still bound, per cent of control [26]: 54%; kinase still bound, per cent of control [27]: 100%; kinase still bound, per cent of control [28]: 100%; kinase still bound, per cent of control [29]: 100%; kinase still bound, per cent of control [30]: 82%; kinase still bound, per cent of control [31]: 52%; kinase still bound, per cent of control [32]: 90%; kinase still bound, per cent of control [33]: 16%; kinase still bound, per cent of control [34]: 92%; kinase still bound, per cent of control [35]: 68%; kinase still bound, per cent of control [36]: 19%; kinase still bound, per cent of control [37]: 66%; kinase still bound, per cent of control [38]: 84%; kinase still bound, per cent of control [39]: 66%; kinase still bound, per cent of control [40]: 11% |
